PMC7619385 (ACS infectious diseases, 2025)

Each compound was assayed against T1, LmxCLK1 (Leishmania mexicana, UniProt E9AMP2) (assay: biochemical). Conditions: not given.
T1 sequence (E9AMP2 1-422): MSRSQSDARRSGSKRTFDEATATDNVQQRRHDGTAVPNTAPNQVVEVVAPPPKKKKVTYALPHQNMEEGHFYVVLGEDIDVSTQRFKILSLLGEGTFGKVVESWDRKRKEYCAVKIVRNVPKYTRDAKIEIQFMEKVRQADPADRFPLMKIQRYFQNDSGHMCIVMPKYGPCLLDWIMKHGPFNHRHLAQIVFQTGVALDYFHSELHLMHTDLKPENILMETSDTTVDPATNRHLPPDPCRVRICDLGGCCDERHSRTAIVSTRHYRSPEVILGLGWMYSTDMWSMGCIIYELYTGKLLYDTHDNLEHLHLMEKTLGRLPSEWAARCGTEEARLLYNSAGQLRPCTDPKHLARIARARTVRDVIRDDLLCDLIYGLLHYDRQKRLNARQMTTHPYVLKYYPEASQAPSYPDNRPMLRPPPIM
Type: binding

Q: Which “ΔTm Average” value does the source give for `CCc1cncnc1N1CCN(Cc2nc3ccc(C(F)(F)F)cc3[nH]2)CC1` [PF-4708671] here?
A: -0.1

Q: What about the ΔTm Run 1 of the same compound?
A: 0.1 °C

Q: And the “ΔTm Run 2” value?
A: -0.2

Q: How did the ΔTm Average turn out when `CCc1cc(Nc2nccc(-c3c(-c4ccc(OC)c(C(=O)Nc5c(F)cccc5F)c4)nc4ccccn34)n2)c(OC)cc1N1CCC(N2CCN(S(C)(=O)=O)CC2)CC1` [GSK1904529A] was run?
A: 0.2 °C

Q: And the ΔTm Run 1?
A: 0.2 °C

Q: And the ΔTm Run 2?
A: 0.1 °C

Q: With `CNC(=O)c1c(F)cccc1Nc1nc(Nc2cc3c(cc2OC)CCN3C(=O)CN(C)C)nc2[nH]ccc12` [GSK1838705A] as the compound, how does the “ΔTm Average” value read?
A: -0.2

Q: What about the “ΔTm Run 1” value of the same compound?
A: -0.1

Q: What about the “ΔTm Run 2” value of the same compound?
A: -0.3

Same assay, conditions: DSF, 10 µM compound, 2 µM LmxCLK1, Run 1

Q: How did the “ΔTm Run 1” value turn out when `COc1cc2ncc(-c3ccccc3)nc2cc1OC` [Tyrphostin AG 1296] was run?
A: 0.3 °C

Q: `COc1cc2ncnc(Nc3cccc(Cl)c3)c2cc1OC` [AG-1478 (Tyrphostin AG-1478)] was tested. Which “ΔTm Run 1” value did it give?
A: 0.1 °C

Q: For `CC(C)(C)c1cc(C=C(C#N)C#N)cc(C(C)(C)C)c1O` [Tyrphostin 9], which “ΔTm Run 1” value is on record?
A: -0.3 °C

Q: `Cc1ccc(C(=O)Nc2cccc(C(F)(F)F)c2)cc1Nc1nc(-c2cccnc2)nc2c1cnn2C` [NVP-BHG712] was tested. Which “ΔTm Run 1” value did it give?
A: 0.1 °C

Q: How did the “ΔTm Run 1” value turn out when `Cn1cnc2c(F)c(Nc3ccc(Br)cc3F)c(C(=O)NOCCO)cc21` [MEK162 (ARRY-162)] was run?
A: -0.2 °C

Q: How did the “ΔTm Run 1” value turn out when `CCn1c2ccccc2c2cc(Nc3ccnc(NCCCN4CCOCC4)n3)ccc21` [EHop-016] was run?
A: -0.1 °C

Q: `Cc1cnc(-c2cnc(NCCNc3ccc(C#N)cn3)nc2-c2ccc(Cl)cc2Cl)[nH]1.Cl` [CHIR-99021 (CT99021) HCl] was tested. Which “ΔTm Run 1” value did it give?
A: 0.0 °C

Q: For `CNC(=O)c1cc(Oc2ccc(NC(=O)Nc3ccc(Cl)c(C(F)(F)F)c3)cc2)ccn1` [Sorafenib], which “ΔTm Run 1” value is on record?
A: -0.3 °C

Q: With `COc1cc(Nc2ncc(F)c(Nc3ccc4c(n3)NC(=O)C(C)(C)O4)n2)cc(OC)c1OC` [R406 (free base)] as the compound, how does the “ΔTm Run 1” value read?
A: 0.0 °C

Q: With `CSc1cccc(Nc2ncc3cc(-c4c(Cl)cccc4Cl)c(=O)n(C)c3n2)c1` [PD173955] as the compound, how does the “ΔTm Run 1” value read?
A: 0.0 °C

Q: For `CN(c1ncccc1CNc1nc(Nc2ccc3c(c2)CC(=O)N3)ncc1C(F)(F)F)S(C)(=O)=O` [PF-562271], which “ΔTm Run 1” value is on record?
A: 0.3 °C

Q: For `Nc1ccc(-c2ccc3ncc4ccc(=O)n(-c5cccc(C(F)(F)F)c5)c4c3c2)cn1` [Torin 2], which “ΔTm Run 1” value is on record?
A: -0.1 °C

Q: For `CN(C)c1ccc(-c2nc3ncc(Cl)c(N4CCN(CC(=O)Nc5nccs5)CC4)c3[nH]2)cc1` [CCT129202], which “ΔTm Run 1” value is on record?
A: -0.1 °C

Q: How did the “ΔTm Run 1” value turn out when `O=C(NC(NC(=S)Nc1ccc(F)c([N+](=O)[O-])c1)C(Cl)(Cl)Cl)C(c1ccccc1)c1ccccc1` (stereo not drawn) [CGK 733] was run?
A: -0.6 °C

Q: How did the “ΔTm Run 1” value turn out when `COc1cc2c(N3CCN(C(=O)Nc4ccc(OC(C)C)cc4)CC3)ncnc2cc1OCCCN1CCCCC1` [Tandutinib (MLN518)] was run?
A: 0.1 °C

Same assay, conditions: DSF, 10 µM compound, 2 µM LmxCLK1, Run 2

Q: With `COc1cc2ncc(-c3ccccc3)nc2cc1OC` [Tyrphostin AG 1296] as the compound, how does the “ΔTm Run 2” value read?
A: 0.1 °C

Q: Which “ΔTm Run 2” value does the source give for `COc1cc2ncnc(Nc3cccc(Cl)c3)c2cc1OC` [AG-1478 (Tyrphostin AG-1478)] here?
A: 0.3 °C

Q: For `CC(C)(C)c1cc(C=C(C#N)C#N)cc(C(C)(C)C)c1O` [Tyrphostin 9], which “ΔTm Run 2” value is on record?
A: -0.3 °C

Q: Which “ΔTm Run 2” value does the source give for `Cc1ccc(C(=O)Nc2cccc(C(F)(F)F)c2)cc1Nc1nc(-c2cccnc2)nc2c1cnn2C` [NVP-BHG712] here?
A: -0.3 °C

Q: Which “ΔTm Run 2” value does the source give for `Cn1cnc2c(F)c(Nc3ccc(Br)cc3F)c(C(=O)NOCCO)cc21` [MEK162 (ARRY-162)] here?
A: -0.4 °C

Q: For `CCn1c2ccccc2c2cc(Nc3ccnc(NCCCN4CCOCC4)n3)ccc21` [EHop-016], which “ΔTm Run 2” value is on record?
A: 0.0 °C

Q: With `Cc1cnc(-c2cnc(NCCNc3ccc(C#N)cn3)nc2-c2ccc(Cl)cc2Cl)[nH]1.Cl` [CHIR-99021 (CT99021) HCl] as the compound, how does the “ΔTm Run 2” value read?
A: 0.0 °C

Q: How did the “ΔTm Run 2” value turn out when `CNC(=O)c1cc(Oc2ccc(NC(=O)Nc3ccc(Cl)c(C(F)(F)F)c3)cc2)ccn1` [Sorafenib] was run?
A: 0.2 °C

Q: For `COc1cc(Nc2ncc(F)c(Nc3ccc4c(n3)NC(=O)C(C)(C)O4)n2)cc(OC)c1OC` [R406 (free base)], which “ΔTm Run 2” value is on record?
A: 0.0 °C

Q: For `CSc1cccc(Nc2ncc3cc(-c4c(Cl)cccc4Cl)c(=O)n(C)c3n2)c1` [PD173955], which “ΔTm Run 2” value is on record?
A: -0.3 °C

Q: `CN(c1ncccc1CNc1nc(Nc2ccc3c(c2)CC(=O)N3)ncc1C(F)(F)F)S(C)(=O)=O` [PF-562271] was tested. Which “ΔTm Run 2” value did it give?
A: -0.1 °C

Q: Which “ΔTm Run 2” value does the source give for `Nc1ccc(-c2ccc3ncc4ccc(=O)n(-c5cccc(C(F)(F)F)c5)c4c3c2)cn1` [Torin 2] here?
A: 0.0 °C

Q: For `CN(C)c1ccc(-c2nc3ncc(Cl)c(N4CCN(CC(=O)Nc5nccs5)CC4)c3[nH]2)cc1` [CCT129202], which “ΔTm Run 2” value is on record?
A: 0.0 °C

Q: With `O=C(NC(NC(=S)Nc1ccc(F)c([N+](=O)[O-])c1)C(Cl)(Cl)Cl)C(c1ccccc1)c1ccccc1` (stereo not drawn) [CGK 733] as the compound, how does the “ΔTm Run 2” value read?
A: 0.0 °C

Q: `COc1cc2c(N3CCN(C(=O)Nc4ccc(OC(C)C)cc4)CC3)ncnc2cc1OCCCN1CCCCC1` [Tandutinib (MLN518)] was tested. Which “ΔTm Run 2” value did it give?
A: -0.1 °C

Same assay, conditions: DSF, 10 µM compound, 2 µM LmxCLK1, mean of two runs

Q: Which “ΔTm Average” value does the source give for `COc1cc2ncc(-c3ccccc3)nc2cc1OC` [Tyrphostin AG 1296] here?
A: 0.2 °C

Q: With `COc1cc2ncnc(Nc3cccc(Cl)c3)c2cc1OC` [AG-1478 (Tyrphostin AG-1478)] as the compound, how does the “ΔTm Average” value read?
A: 0.2 °C

Q: How did the “ΔTm Average” value turn out when `CC(C)(C)c1cc(C=C(C#N)C#N)cc(C(C)(C)C)c1O` [Tyrphostin 9] was run?
A: -0.3 °C

Q: With `Cc1ccc(C(=O)Nc2cccc(C(F)(F)F)c2)cc1Nc1nc(-c2cccnc2)nc2c1cnn2C` [NVP-BHG712] as the compound, how does the “ΔTm Average” value read?
A: -0.1 °C

Q: With `Cn1cnc2c(F)c(Nc3ccc(Br)cc3F)c(C(=O)NOCCO)cc21` [MEK162 (ARRY-162)] as the compound, how does the “ΔTm Average” value read?
A: -0.3 °C

Q: For `CCn1c2ccccc2c2cc(Nc3ccnc(NCCCN4CCOCC4)n3)ccc21` [EHop-016], which “ΔTm Average” value is on record?
A: 0.0 °C

Q: With `Cc1cnc(-c2cnc(NCCNc3ccc(C#N)cn3)nc2-c2ccc(Cl)cc2Cl)[nH]1.Cl` [CHIR-99021 (CT99021) HCl] as the compound, how does the “ΔTm Average” value read?
A: 0.0 °C

Q: How did the “ΔTm Average” value turn out when `CNC(=O)c1cc(Oc2ccc(NC(=O)Nc3ccc(Cl)c(C(F)(F)F)c3)cc2)ccn1` [Sorafenib] was run?
A: -0.1 °C

Q: `COc1cc(Nc2ncc(F)c(Nc3ccc4c(n3)NC(=O)C(C)(C)O4)n2)cc(OC)c1OC` [R406 (free base)] was tested. Which “ΔTm Average” value did it give?
A: 0.0 °C

Q: How did the “ΔTm Average” value turn out when `CSc1cccc(Nc2ncc3cc(-c4c(Cl)cccc4Cl)c(=O)n(C)c3n2)c1` [PD173955] was run?
A: -0.1 °C

Q: For `CN(c1ncccc1CNc1nc(Nc2ccc3c(c2)CC(=O)N3)ncc1C(F)(F)F)S(C)(=O)=O` [PF-562271], which “ΔTm Average” value is on record?
A: 0.1 °C

Q: Which “ΔTm Average” value does the source give for `Nc1ccc(-c2ccc3ncc4ccc(=O)n(-c5cccc(C(F)(F)F)c5)c4c3c2)cn1` [Torin 2] here?
A: 0.0 °C

Q: `CN(C)c1ccc(-c2nc3ncc(Cl)c(N4CCN(CC(=O)Nc5nccs5)CC4)c3[nH]2)cc1` [CCT129202] was tested. Which “ΔTm Average” value did it give?
A: 0.0 °C

Q: Which “ΔTm Average” value does the source give for `O=C(NC(NC(=S)Nc1ccc(F)c([N+](=O)[O-])c1)C(Cl)(Cl)Cl)C(c1ccccc1)c1ccccc1` (stereo not drawn) [CGK 733] here?
A: -0.3 °C

Q: `COc1cc2c(N3CCN(C(=O)Nc4ccc(OC(C)C)cc4)CC3)ncnc2cc1OCCCN1CCCCC1` [Tandutinib (MLN518)] was tested. Which “ΔTm Average” value did it give?
A: 0.0 °C
